According to patent EP4772520A1, “NOVEL PRODRUG-TYPE ANTICANCER AGENT TARGETING CANCER-SPECIFIC ENZYME ACTIVITY” (priority 2023, dated 2025):
Where “and” joins values, the source holds several entries; their conditions need not be identical. Equal values may be shown once. Entries after “also recorded” stand apart in the source; their conditions may differ.

Key:
[1] = Single dose toxicity test 1 (intravenous); type: in vivo, Jcl: ICR mice (female); conditions: for symptoms immediately after administration: 200 mg/kg intravenous, improved in several hours; for Survival rate (%) (after 10 days) / Survival rate (%) (just after administration): 200 mg/kg single intravenous administration, n=10; for LD50 at 240 h: mouse, in vivo, iv, single intravenous administration, estimated
Description: Single dose toxicity was evaluated by intravenously administering 200 mg/kg each of the novel prodrug-type anticancer agents SN38-βGal and SN38-βGlcNAc to Jcl: ICR mice (female).

[2] = Evaluation of locomotion after administration of drug; type: in vivo; conditions: intravenous administration of 40 mg/kg, n = 4, 15 minutes from 1 minute after administration
Description: The momentum after drug administration was compared (n = 4).
Fig. 22 illustrates results of locomotion evaluation after drug administration. a of Fig. 22 illustrates the head movement distance for 15 minutes from 1 minute after administration in each group. The drug is administered intravenously at 40 mg/kg (n = 4). b of Fig. 22 illustrates an example of a movement trajectory for 15 minutes from 1 minute after administration in each group. c of Fig. 22 illustrates an example of a movement distance for each time from 1 minute after administration in each group.

[3] = test system: luciferase-expressing A549 cell; test: Therapeutic experiment in A549 peritoneal dissemination model; type: in vivo, mice
Description: The therapeutic effect was verified using a peritoneal dissemination model using SN38-βGal. Whether the tumor suppression effect was confirmed was evaluated as compared with the Vehicle group (DMSO administration) by separating the SN38-βGal from the 10 mg/kg and 20 mg/kg administration groups.
n = 3 for each group, and evaluation was performed on luciferase-expressing A549 cell peritoneal dissemination model mice using BALB/cAJcl-nu/nu. The administration form was intraperitoneal administration (i.p.), and continuous administration was performed for 40 days. Tumor burden was determined by evaluating luciferin/luciferase chemiluminescence. An endpoint was a time point at which significant body weight loss (20% loss) or intraperitoneal hemorrhage was found.
A specific procedure of the therapeutic experiment is shown below. • (1) Luciferase expressing A549 cells 5 × 10^6 cells/mL (200 µL) was intraperitoneally administered to BALB/cAJcl-nu/nu (7 weeks old). • (2) After one week, the formation of peritoneal dissemination was confirmed by luciferin/luciferase chemiluminescence, and drug administration was started. 3 mg (200 µL) of luciferin was administered by intraperitoneal administration, and anesthetized with isoflurane. Thereafter, the chemiluminescent value at 20 minutes after administration was measured by an in vivo imaging device. The drug was prepared by dissolving a 100 mM of DMSO stock in PBS, and administered in a total amount of 100 µL. • (3) On the day of evaluation, the tumor burden was evaluated by luciferin/luciferase chemiluminescence. • (4) After completion of the treatment, gGlu-HMRG (10 µM, 500 µL PBS) was intraperitoneally administered, and 10 minutes later, the abdomen was opened, and the intestinal tract and the peritoneum were taken out. • (5) The seeded lesion was fluorescently imaged by an in vivo fluorescence imaging device, and comparison between the Vehicle and the administration group was performed.

in vivo = conditions: for AUC(0-t) at 6 h: AUC0-6h (μg・h/mL); for clearance: CLtot (mL/min/kg); for AUC0-6h (μg・h/mL): 360 min
Excerpt: A specific test procedure is shown below. • (1) Three marmosets (6 males in total) in each of the SN38-βGal and SN38-βGlcNAc administration groups were sequentially retained using a retention device, and a tail of the administration site was shaved. • (2) The base of the tail from the injection site was avascularized to cause blood vessels to become engorged. Veins running on both left and right sides of the tail were checked, the puncture site was disinfected with alcohol cotton, and then administration was performed with a 27 G injection needle using one of the left and right blood vessels. For administration, 1.0 mg/mL of prepared administration solution of SN38-βGal or SN38-βGlcNAc was intravenously administered at an injection rate of 350 µL/min (about 11 minutes: due to different body weight, the time τ actually required for the injection was accurately recorded for each individual) by an infusion pump at a dose of 10 mg/10 mL/kg. • (3) Immediately after the start of infusion administration, about 220 µL of blood was collected with a heparinized syringe at 5, 15, 30, 45 minutes, 1, 2, 3, and 6 hours, and centrifuged at 1200 G and 4°C for 15 minutes to collect plasma. • (4) After the plasma was dispensed into the microtube, 100 µL of the plasma was accurately taken, and a 200 µM of inhibitor N-(n-nonyl) deoxygalactonoijirimycin solution in the SN38-βGal administration group, a 200 µM of inhibitor PUGNAc solution in the SN38-βGlcNAc administration group, and 100 µL of each were added to the microtube dispensed in advance and mixed quickly.

[4] = test system: lung squamous carcinomas cell H226; test: Cytotoxicity test by MTT assay method (H226 cells); type: cell-based; conditions: for cytotoxicity in the presence of inhibitor: H226; for IC50: Homo sapiens, NCI-H226, 72 h, read-out: IC50 value
[5] = test system: luciferase-expressing SKOV3 cells; test: Therapeutic experiment of SN38-βGal in SKOV3 ovarian cancer peritoneal dissemination model; type: in vivo, mice; conditions: for body weight: 20 mg/kg i.p. 5 times a week; for tumor proliferation suppression effect: 20 mg/kg i.p. 5 times a week over 4 weeks and 3 days, vs Vehicle, 20 mg/kg
Description: Next, the therapeutic effect of SN38-βGal in the ovarian cancer peritoneal dissemination model was verified. Vehicle (DMSO) group (n = 5), SN38-βGal, and 20 mg/kg (n = 4) were set, and 20 mg/kg was intraperitoneally administered 5 times a week (2 days off) over 4 weeks and 3 days.
A specific procedure of the therapeutic experiment is shown below. • (1) 1.5 × 10^6 luciferase-expressing SKOV3 cells were intraperitoneally administered to BALB/cAJcl-nu/nu (7 weeks old). • (2) After one week, the formation of cancer was confirmed by luciferin/luciferase chemiluminescence. • (3) Intraperitoneal administration of the drug was started in a cycle in which the drug was administered to the mice in which formation of cancer was confirmed for five consecutive days within 1 week and the drug was withdrawn for 2 days. The drug was prepared by dissolving a 100 mM of DMSO stock in PBS, and administered in a total amount of 100 µL. • (4) On the evaluation day, 3 mg of luciferin potassium dissolved in 200 µL of PBS was intraperitoneally administered, and anesthetized with isoflurane, and then the luminescence value 15 minutes after the administration was measured with an in vivo imaging device. At the same time, the body weight was measured.
According to the same protocol as that of the first therapeutic experiment, Vehicle (DMSO) group (n = 5), SN38-βGal, and 20 mg/kg (n = 4) were set, and 20 mg/kg was intraperitoneally administered 5 times a week (2 days off) over 4 weeks and 3 days.

[6] = marmoset, in vivo, iv, 10 mg/kg, prodrug, 11 min infusion, N=3, average
[7] = marmoset, in vivo, iv, 10 mg/kg, Vd (L/kg), prodrug, 11 min infusion, N=3, average
[8] = marmoset, in vivo, iv, 10 mg/kg, Vd (L/kg), prodrug, 10 mg/kg i.v., individual marmosets
[9] = marmoset, in vivo, iv, 10 mg/kg, blood half-life, prodrug, 10 mg/kg i.v., 11 minutes infusion
[10] = marmoset, in vivo, iv, 10 mg/kg, t1/2 (h), prodrug, 11 min infusion, N=3, average
[11] = marmoset, in vivo, iv, 10 mg/kg, t1/2 (h), prodrug, 10 mg/kg i.v., individual marmosets
[12] = prodrug, 10 mg/kg i.v., individual marmosets, 10 mg/kg
[13] = marmoset, in vivo, iv, 10 mg/kg, prodrug, 10 mg/kg i.v., individual marmosets

SMILES | symptoms immediately after administration [1] | Survival rate (%) (after 10 days) [1] | Survival rate (%) (just after administration) [1] | LD50 at 240 h [1] [mg/kg] | locomotion after drug administration [2] | abnormalities after drug administration (in vivo; 10 mg/kg i.v.) | AUC(0-t) at 6 h (in vivo; [6]) [µg·h/mL] | clearance (in vivo; [6]) [L/h/kg] | Vd (in vivo; [7]) [L/kg] | Vd (in vivo; [8]) [L/kg] | half-life (in vivo; [9]) [min] | half-life (in vivo; [10]) [min] | half-life (in vivo; [11]) [min] | CLtot (in vivo; [12]) | Vd (in vivo; [12]) | t1/2 (in vivo; [12]) | AUC0-6h (μg・h/mL) (in vivo; [12]) | IC50 [4] [µM] | other results
CCc1c2c(nc3ccc(O[C@@H]4O[C@H](CO)[C@H](O)[C@H](O)[C@H]4O)cc13)-c1cc3c(c(=O)n1C2)COC(=O)[C@]3(O)CC [SN38-βGal] | reduced locomotor activity, tremor, and prone states were found in more than half of the mice in both groups | 100 | 100 | ≥ 200 | these decreases in the locomotion were hardly observed | remarkable abnormalities, vomiting, and the like were not found in any individual | 52.7 | 0.21 | 0.215 | 0.205 | 58.3 | 58.3 | 49.9 | 0.204 L/h/kg and 0.132 L/h/kg and 0.288 L/h/kg | 0.169 L/kg and 0.271 L/kg | 58.7 min and 66.3 min | 48.57 μg・h/mL and 75.13 μg・h/mL and 34.47 μg・h/mL | 1.39 | tumor suppression effect (luciferin/luciferase chemiluminescence) ([3]; 10 mg/kg and 20 mg/kg i.p., continuous administration for 40 days, vs Vehicle): the therapeutic efficacy of SN38-βGal in peritoneal dissemination model mice was confirmed; body weight ([3]; 10 mg/kg i.p. group): there was almost no difference from the Vehicle; body weight ([3]; 20 mg/kg i.p. group): a slight body weight loss was found in the 20 mg/kg group by Day 10 of administration; cytotoxicity in the presence of inhibitor ([4]; inhibitor of β-galactosidase, N-(n-nonyl) deoxygalactonoijirimycin, 40 µM): cytotoxicity was significantly reduced; body weight ([5]; first experiment): no significant body weight loss was found; tumor proliferation suppression effect ([5]; first experiment): the tumor proliferation suppression effect was suggested again; also recorded: significantly suppressed tumor growth; body weight ([5]; second experiment): no significant body weight loss was found; tumor proliferation suppression effect ([5]; second experiment): the tumor proliferation suppression effect was confirmed again; also recorded: significantly suppressed tumor growth
CCc1c2c(nc3ccc(O[C@@H]4O[C@H](CO)[C@@H](O)[C@H](O)[C@H]4NC(C)=O)cc13)-c1cc3c(c(=O)n1C2)COC(=O)[C@]3(O)CC [SN38-βGlcNAc] | reduced locomotor activity, tremor, and prone states were found in more than half of the mice in both groups | 100 | 100 | ≥ 200 | these decreases in the locomotion were hardly observed | remarkable abnormalities, vomiting, and the like were not found in any individual | 78.3 | 0.132 | 0.142 | 0.149 | 47.6 | 47.6 | 43.9 | 0.12 L/h/kg | 0.134 L/kg and 0.143 L/kg | 49.7 min and 49.3 min | 84.34 μg・h/mL and 76.92 μg・h/mL | 1.5 | AUC(0-t) at 6 h (in vivo; [13]): 73.5 µg·h/mL; AUC (in vivo; marmoset, in vivo, iv, 10 mg/kg, AUC0- (μg・h/mL), prodrug, 10 mg/kg i.v., individual marmosets): 73.8 µg·h/mL; clearance (in vivo; [13]): 0.138 L/h/kg; cytotoxicity in the presence of inhibitor ([4]; 40 µM of inhibitor of β-hexosaminidase, PUGNAc): cytotoxicity was significantly reduced
